Tested on: influenza virus
Type: cell-based

With Heparin the “viral activity after 1/100 dilution (virucidal activity)” value was “recovery in viral activity”.

— patent US20240197634A1, “PHARMACEUTICAL COMPOSITION FOR PREVENTING OR TREATING VIRUS INFECTIONS, COMPRISING POLYMER NANODISCS” (priority 2021, published 2024)
